Test system: MC-38 tumors
Assay: Anti-tumor efficacy of Compound 1 in the subcutaneous MC-38 model: schedule comparison (Example 3)
Format: in vivo, Mus musculus
Conditions: for MST: endpoint tumor volume 2000 mm^3
Protocol: Female C57BL/6 mice were inoculated subcutaneously at right flank with MC-38 cells for tumor development. Six days after tumor inoculation, 64 mice with tumor size ranging from 50-100 mm^3 (average tumor size 71 mm^3) were selected and assigned into 8 groups using stratified randomization with 8 mice per group based upon their tumor volumes. The treatments were started from the day of randomization (defined as D0), Group 1 was treated with Vehicle (Tween 80:Ethanol:Saline—5:5:90 v/v/v), S.C. QD*20 days, Group 2 was treated with Compound 1 at 1 mpk S.C. QD*28 days, Group 3 was treated with Compound 1 at 0.5 mpk S.C. QD*28 days, Group 4 was treated with Compound 1 at 1.4 mpk S.C. 5-days ON 2-days OFF×4 cycles, Group 5 was treated with Compound 1 at 0.7 mpk S.C. 5-days ON 2-days OFF×4 cycles, Group 6 was treated with Compound 1 at 3 mpk qd×5, followed by 1 mpk qd×23, S.C. QD, Group 7 was treated with Compound 1 at 1.5 mpk qd×5, followed by 0.5 mpk qd×23, S.C. QD and Group 8 was treated with Compound 1 at 1.4 mpk 10-days ON 4-days OFF×2 cycles, S.C.
Species: Mus musculus; Strain: C57BL/6; Age: 6-8 weeks; Sex: female; Body weight (at treatment start): 16-20 g.
The MC-38 tumor cells were maintained in vitro as a monolayer culture in DMEM medium supplemented with 10% heat inactivated fetal bovine serum and 100 μg/mL penicillin streptomycin at 37° C. in an atmosphere of 5% CO2 in air. The tumor cells were routinely subcultured twice weekly by trypsin-EDTA treatment. The cells growing to a confluency around 70%-80% were harvested and counted for tumor inoculation. The cultured MC-38 were harvested, re-suspended in base medium at a density of 1×10^7 cells/mL with viability>90%. Each mouse was inoculated subcutaneously at the right flank with 1×10^6 cells in 0.1 ml base medium for tumor development.
The treatments were started on day 6 after tumor inoculation when the tumor size reached 50-100 mm^3 (average tumor size 71 mm^3). Each group consisted of 8 tumor-bearing mice. The testing article was administrated to the mice at a dosing volume of 10 mL/Kg according to the predetermined regimen as shown in Table 3-1.
Tumor sizes were measured three times a week in two dimensions using a caliper, and the volume expressed in mm^3 using the formula: V=0.5 a×b^2 where a and b are the long and short diameters of the tumor, respectively. The tumor sizes were then used for the calculations of both tumor growth inhibition (TGI) and T/C values.
TGI is calculated for each group using the formula: […]
TVTreatment_DayN is the average tumor volume of a treatment group on a given day, TVTreatment_Day0 is the average tumor volume of the treatment group on the first day of treatment, TVVehicle_DayN is the average tumor volume of the vehicle control group on a given day, and TVVehicle_Day0 is the average tumor volume of the vehicle group on the first day of treatment.
The T/C value (in percent) is an indication of antitumor effectiveness, T/C (%)=RTVTreatment/RTVControl×100% (RTVTreatment: the mean RTV of the treatment group; RTVControl: the mean RTV of the vehicle treated group). RTV (relative tumor volume)=TVDayN/TVDay0. TVDayN and TVDay0 is the tumor volume on day N and Day 0 respectively. T/C (%)≤42% is considered as significant antitumor activity and <10% is considered as highly significant antitumor activity by the National Cancer Institute criteria.
Relative change of body weight (RCBW) of each mouse was calculated according to the following formula: […]
Animal survival curve: When an individual animal reached to the termination endpoint (TV>2000 mm^3), the mouse was euthanized. The time from treatment initiation to the termination was deemed as its survival time. Survival curve was plotted by Kaplan-Meier method. Median survival time (MST) was calculated for each group. Increase of life span (ILS) was calculated according to the following formula: […]
ILS (%)>25% is considered as a biologically significant survival benefit. […]

[1] = 0.7 mpk S.C. 5-days ON 2-days OFF
[2] = 1.4 mpk days ON 2-days OFF x 4 cycles
[3] = 1.5 mpk qdx5, followed by 0.5 mpk qdx23
[4] = 3 mpk qdx5, followed by 1 mpk qdx23
[5] = Day 13, 0.7 mpk S.C. 5-days ON 2-days OFF
[6] = Day 13, 1.4 mpk 10-days ON 4-days OFF
[7] = Day 13, 1.4 mpk days ON 2-days OFF x 4 cycles
[8] = Day 13, 1.5 mpk qdx5, followed by 0.5 mpk qdx23
[9] = Day 13, 3 mpk qdx5, followed by 1 mpk qdx23

CC(=O)N[C@@H](Cc1c[nH]c2ccccc12)C(=O)N[C@@H](CCC(=O)C=[N+]=[N-])C(=O)OC(C)C [Compound 1, Isopropyl (S)-2-((S)-2-acetamido-3-(1H-indol-3-yl)propanamido)-6-diazo-5-oxohexanoate]
ILS (0.5 mpk QD*28 days): 126%
RTV at day 13 (0.5 mpk QD*28 days): 0 ± 0
MST (0.5 mpk QD*28 days): 43 days
ILS [1]: 208%
RTV at day 13 [1]: 0 ± 0
MST [1]: 58.5 days
ILS (1 mpk QD*28 days): 126%
RTV at day 13 (1 mpk QD*28 days): 0 ± 0
MST (1 mpk QD*28 days): 43 days
ILS (1.4 mpk 10-days ON 4-days OFF): 121%
RTV at day 13 (1.4 mpk 10-days ON 4-days OFF): 0 ± 0
MST (1.4 mpk 10-days ON 4-days OFF): 42 days
ILS [2]: 153%
RTV at day 13 [2]: 0 ± 0
MST [2]: 48 days
ILS [3]: 121%
RTV at day 13 [3]: 0 ± 0
MST [3]: 42 days
ILS [4]: 134%
RTV at day 13 [4]: 0 ± 0
MST [4]: 44.5 days
Tumor volume (Mean ± SEM) (Day 11, Group 2: 1 mg/kg qdx28, sc): 15 ± 3 mm^3
Tumor volume (Mean ± SEM) (Day 11, Group 3: 0.5 mg/kg qdx28, sc): 29 ± 3 mm^3
Tumor volume (Mean ± SEM) (Day 11, Group 4: 1.4 mg/kg 5-days ON 2-days OFF x 4 cycles, sc): 14 ± 2 mm^3
Tumor volume (Mean ± SEM) (Day 11, Group 5: 0.7 mg/kg 5-days ON 2-days OFF x 4 cycles, sc): 20 ± 4 mm^3
Tumor volume (Mean ± SEM) (Day 11, Group 6: 3 mpk qdx5 followed by 1 mpk qdx23, sc): 24 ± 2 mm^3
Tumor volume (Mean ± SEM) (Day 11, Group 7: 1.5 mpk qdx5 followed by 0.5 mpk qdx23, sc): 21 ± 2 mm^3
Tumor volume (Mean ± SEM) (Day 11, Group 8: 1.4 mg/kg 10-days ON 4-days OFF x 2 cycles, sc): 28 ± 4 mm^3
T/C (Day 13, 0.5 mpk QD*28 days): 0%
TGI (Day 13, 0.5 mpk QD*28 days): 103.48%
T/C [5]: 0%
TGI [5]: 104.42%
T/C (Day 13, 1 mpk QD*28 days): 0%
TGI (Day 13, 1 mpk QD*28 days): 104.87%
T/C [6]: 0%
TGI [6]: 104.10%
T/C [7]: 0%
TGI [7]: 104.49%
T/C [8]: 0%
TGI [8]: 104.24%
T/C [9]: 0%
TGI [9]: 104.29%
Tumor volume (Mean ± SEM) (Day 13, Group 2: 1 mg/kg qdx28, sc, 1 mg/kg): 5 ± 2 mm^3
Tumor volume (Mean ± SEM) (Day 13, Group 3: 0.5 mg/kg qdx28, sc, 0.5 mg/kg): 24 ± 2 mm^3
Tumor volume (Mean ± SEM) (Day 13, Group 4: 1.4 mg/kg 5-days ON 2-days OFF x 4 cycles, sc, 1.4 mg/kg): 11 ± 3 mm^3
Tumor volume (Mean ± SEM) (Day 13, Group 5: 0.7 mg/kg 5-days ON 2-days OFF x 4 cycles, sc, 0.7 mg/kg): 13 ± 4 mm^3
Tumor volume (Mean ± SEM) (Day 13, Group 6: 3 mpk qdx5 followed by 1 mpk qdx23, sc): 14 ± 3 mm^3
Tumor volume (Mean ± SEM) (Day 13, Group 7: 1.5 mpk qdx5 followed by 0.5 mpk qdx23, sc): 15 ± 3 mm^3
Tumor volume (Mean ± SEM) (Day 13, Group 8: 1.4 mg/kg 10-days ON 4-days OFF x 2 cycles, sc, 1.4 mg/kg): 17 ± 4 mm^3
Tumor volume (Mean ± SEM) (Day 15, Group 2: 1 mg/kg qdx28, sc): 1 ± 1 mm^3
Tumor volume (Mean ± SEM) (Day 15, Group 3: 0.5 mg/kg qdx28, sc): 17 ± 3 mm^3
Tumor volume (Mean ± SEM) (Day 15, Group 4: 1.4 mg/kg 5-days ON 2-days OFF x 4 cycles, sc): 2 ± 1 mm^3
Tumor volume (Mean ± SEM) (Day 15, Group 5: 0.7 mg/kg 5-days ON 2-days OFF x 4 cycles, sc): 6 ± 3 mm^3
Tumor volume (Mean ± SEM) (Day 15, Group 6: 3 mpk qdx5 followed by 1 mpk qdx23, sc): 6 ± 2 mm^3
Tumor volume (Mean ± SEM) (Day 15, Group 7: 1.5 mpk qdx5 followed by 0.5 mpk qdx23, sc): 9 ± 2 mm^3
Tumor volume (Mean ± SEM) (Day 15, Group 8: 1.4 mg/kg 10-days ON 4-days OFF x 2 cycles, sc): 14 ± 3 mm^3
Tumor volume (Mean ± SEM) (Day 18, Group 2: 1 mg/kg qdx28, sc): 1 ± 0 mm^3
Tumor volume (Mean ± SEM) (Day 18, Group 3: 0.5 mg/kg qdx28, sc): 10 ± 2 mm^3
Tumor volume (Mean ± SEM) (Day 18, Group 4: 1.4 mg/kg 5-days ON 2-days OFF x 4 cycles, sc): 0 ± 0 mm^3
Tumor volume (Mean ± SEM) (Day 18, Group 5: 0.7 mg/kg 5-days ON 2-days OFF x 4 cycles, sc): 3 ± 1 mm^3
Tumor volume (Mean ± SEM) (Day 18, Group 6: 3 mpk qdx5 followed by 1 mpk qdx23, sc): 7 ± 3 mm^3
Tumor volume (Mean ± SEM) (Day 18, Group 7: 1.5 mpk qdx5 followed by 0.5 mpk qdx23, sc): 8 ± 2 mm^3
Tumor volume (Mean ± SEM) (Day 18, Group 8: 1.4 mg/kg 10-days ON 4-days OFF x 2 cycles, sc): 8 ± 3 mm^3
Tumor volume (Mean ± SEM) (Day 20, Group 2: 1 mg/kg qdx28, sc): 1 ± 0 mm^3
